Data on five molecules can be found in patent US20240390317A1, “COMBINATION TREATMENT AND/OR PREVENTION OF CARDIAC DISEASES IN NON-HUMAN MAMMALS COMPRISING ONE OR MORE SGLT-2 INHIBITORS AND PIMOBENDAN AND/OR TELMISARTAN” (BOEHRINGER INGELHEIM VETMEDICA GMBH, priority 2023, published 2024).

The subject of test [1] is canine atrial fibrillation model. The following applies: cited from earlier work.
For test [2], the system named is mitral regurgitation-induced myocardial dysfunction. The following applies: cited from earlier work.
Test [3] concerns non-diabetic heart failure. The settings on record: by enhancing myocardial energetics; cited from earlier work.
For test [4], the system named is adults with heart failure and reduced or preserved ejection fraction, with and without diabetes. The settings on record: cited from earlier work.
Test [5] has as its system Dogs With Mitral Valve Disease (MVD). In words: Example 16 exploratory clinical field trial, velagliflozin plus pimobendan vs pimobendan. The test is classed as in vivo, dog. As to the method:
The described study is a prospective, baseline controlled, unblinded, open-label, multi-site exploratory clinical field trial. Client owned dogs diagnosed with MVD are randomized at different sites to either a pimobendan or a velagliflozin plus pimobendan treatment group. Eight dogs could be successfully enrolled. […] The clinical field trial is further ongoing.
The dogs that enter the study are evaluated regularly including a full physical examination including bodyweight, blood pressure, auscultation of the cardiovascular system, thoracic radiographs to assess heart size, pulmonary edema and congestion, standard echocardiography, ECG, blood and urine evaluation.
The cardiovascular history is evaluated assessing the date of MVD diagnosis and whether there is a history of heart failure. An owner questionnaire is compiled on a regular basis during the study to provide an overview on the overall condition of the dogs, the respiratory rate per minute at resting and the exercise tolerance during the last seven days of treatment.
The dogs included must be diagnosed with MVD stage B2 or stage C via physical examination and echocardiography. Variables of interest are all clinical parameters evaluated in addition to laboratory values, blood pressure, number of events (death or hospitalization for heart failure or euthanasia), the time-to-event duration, the adjustment of diuretic treatment, owner questionnaire data, x-ray results and overall disease progression (requiring additional, prohibited cardiac treatment).
During the ongoing field trial three dogs are receiving a combined velagliflozin (0.5 mg/kg bodyweight orally once daily) and pimobendan treatment (daily dose of 0.5 mg/kg bodyweight orally divided into two portions that are not necessarily equal).
During the ongoing field trial four dogs are receiving a pimobendan only treatment (daily dose of 0.5 mg/kg bodyweight orally divided into two portions that are not necessarily equal).

In test [6] the test system is dogs with a moderate degree of tachypacing-induced heart-failure [dilated cardiomyopathy (DCM) model]. In words: Example 17 laboratory study (DCM model). The test is classed as in vivo, beagle dogs. The settings on record: for creatinine levels / enhancements of diastolic function and performance (i.e., IVRT, E, E′-ave) / enhancements of values indicative of systolic function and performance (i.e., EF, FAS, Simpson EF, s′ wave, LVOT VTI, SV, CO, or SAX Strain) / urine glucose: tachypacing DCM model, three-month dosing. As to the method:
A laboratory study is conducted to evaluate the effects of the SGLT2 inhibitor Velagliflozin with Pimobendan compared to Pimobendan alone and Velagliflozin alone in dogs with a moderate degree of tachypacing-induced heart-failure [dilated cardiomyopathy (DCM) model]. The study involves 12 beagle dogs, divided into three treatment groups, each containing four dogs, in two dosing phases (totaling eight dogs per group). The treatment groups are Pimobendan, Velagliflozin, and a combination of both (Pimobendan+Velagliflozin).
The dogs are implanted with a pacing generator in the right ventricle (Abbott-Johnson K et al., 2021) and subjected to two rounds of dosing for three months each. The heart failure is induced to a moderate degree (EF=˜40-45%) before the start of each dosing round, with the pacing rate maintained throughout the three-month dosing period. After each round, a washout period of about 21-28 days is given before the next round of dosing begins.
Various data are collected throughout the study, including 6-minute walk test, blood and urine analysis, and echocardiography data. The dogs undergo an anesthetized recovery procedure at the end of each three-month round, where systemic hemodynamics are recorded. A single dose of dobutamine is also administered to measure functional reserve at the end of each 3-month period.

The structures appear in SMILES notation.

On to `Cc1ccc([C@@H]2O[C@H](CO)[C@@H](O)[C@H](O)[C@H]2O)cc1Cc1ccc(-c2ccc(F)cc2)s1` [canagliflozin, Canagliflozin], for which the atrial remodeling entry in test [1] is “suppresses”.

Turning to `CCOc1ccc(Cc2cc([C@@H]3O[C@H](CO)[C@@H](O)[C@H](O)[C@H]3O)ccc2Cl)cc1` [dapagliflozin, Dapagliflozin], in test [2], the arrhythmogenesis result was “mitigates” and the cardiac hemodynamics result is “improves”.

Regarding `OC[C@H]1O[C@@H](c2ccc(Cl)c(Cc3ccc(O[C@H]4CCOC4)cc3)c2)[C@H](O)[C@@H](O)[C@@H]1O` [empagliflozin, Empagliflozin], the “adverse left ventricular remodeling” value in test [3] is listed as “ameliorates”. In addition, the “risk for the composite endpoint of cardiovascular death or hospitalization due to heart failure” value in test [4] is given as “reduced”.

As for `COc1ccc(-c2nc3cc(C4=NNC(=O)CC4C)ccc3[nH]2)cc1` (stereo not shown) [pimobendan, 4,5-dihydro-6-[2-(4-methoxyphenyl)-1H-benzimidazol-5-yl]-5-methyl-3(2H)-pyridazinone], the MINE score result in test [5] (pimobendan only (0.5 mg/kg/day), first dog, Day 88, before: seven, progresses from moderate to severe disease state) is listed as “eight”. In test [5] (pimobendan only, first dog), the “other parameters measured (i.e. heart murmur)” value is listed as “mainly unchanged”. For the same molecule, the “Echo Parameter LA/Ao” value in test [5] (pimobendan only, fourth dog, Day 42, Screening 1.88) is on record as 1.61. For the same molecule, the MINE score result in test [5] (pimobendan only, fourth dog, Day 42, Screening: eight) was “six”. In addition, the “overall condition (owner score)” value in test [5] (pimobendan only, fourth dog, Day 42, Screening: neutral) was “good”. Also, in test [5] (pimobendan only, fourth dog, Day 42, Screening: very poor), the “exercise tolerance in the last 7 days (owner score)” value is given as “good”. The “overall condition and exercise tolerance in the last 7 days (owner report)” value in test [5] (pimobendan only, second dog) is “improvement”. Moreover, the “Echo-Parameter LA/Ao” value in test [5] (pimobendan only, second dog, Day 55, Screening 2.14) is 1.96. In addition, in test [5] (pimobendan only, second dog, Day 55, stable, severely diseased), the “MINE score (echocardiographic parameters)” value is on record as “eight”. The “Echo-Parameter LA/Ao” value in test [5] (pimobendan only, third dog, Day 48, Screening 1.60) is on record as 1.53. The “overall condition of the owner score” value in test [5] (pimobendan only, third dog, Day 48, Screening: neutral) is “good”. Besides, the “functional support with enhanced systolic and diastolic performance” value in test [6] (for three months) is “clear and robust functional support”. Also, in test [6], the creatinine levels result is listed as “does not affect”; the “enhancements of diastolic function and performance (i.e., IVRT, E, E′-ave)” value was around 20%; the “enhancements of values indicative of systolic function and performance (i.e., EF, FAS, Simpson EF, s′ wave, LVOT VTI, SV, CO, or SAX Strain)” value is reported as around 30%; the urine glucose result is “does not affect”.

As for `N#Cc1ccc([C@@H]2O[C@H](CO)[C@@H](O)[C@H](O)[C@H]2O)cc1Cc1ccc(C2CC2)cc1` [velagliflozin, Velagliflozin], in test [6], the creatinine levels entry is on record as “lower”; the “enhancements of diastolic function and performance (i.e., IVRT, E, E′-ave)” value is reported as “little-to-no support”; the “enhancements of values indicative of systolic function and performance (i.e., EF, FAS, Simpson EF, s′ wave, LVOT VTI, SV, CO, or SAX Strain)” value is given as “little-to-no support”; the urine glucose entry is given as “elevated”.
